What follows are compounds tested against human recombinant ATX (Homo sapiens, UniProt Q13822) (assay: Autotaxin (ATX) activity Quanta Red assay). Conditions: Table 2: additional compounds tested for ATX activity (Quanta Red Assay); read-out: Activity.
Assay type: biochemical
Method in brief: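 Recombinant human ATX reaction stopped after 2 h with Quanta Red stop solution; fluorescence read at […]. Controls with DMSO, with and without ATX; IC50 in duplicate.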

Row | IC50 [nM] | SMILES
1 | 807 | O=C(CCc1nc2cccnc2n1Cc1cccs1)NCc1ccccc1 [Example 226, N-Benzyl-3-(3-thiophen-2-ylmethyl-3H-imidazo[4,5-b]pyridin-2-yl)-propionamide]

Same assay, conditions: human recombinant ATX 0.8 μg/mL, 2 hours at room temperature, IC50 determined in duplicate; read-out: Activity (ATX activity, Quanta Red assay; IC50)

Row | SMILES | IC50 [nM]
2 | C[C@H](NC(=O)CCc1nc2ccncc2n1Cc1ccc(F)cc1)c1ccc(F)cc1 [Example 132, 3-[3-(4-Fluoro-benzyl)-3H-imidazo[4,5-c]pyridin-2-yl]-N-[(S)-1-(4-fluoro-phenyl)-ethyl]-propionamide] | 52

Same assay, conditions: read-out: Activity (ATX activity, Quanta Red assay; IC50)

Row | SMILES | IC50 [nM]
3 | O=C(CCc1nc2cccnc2n1Cc1ccc(OC(F)(F)F)cc1)NCC1CCN(C(=O)C2CC2)CC1 [Example 215, N-(1-Cyclopropanecarbonyl-piperidin-4-ylmethyl)-3-[3-(4-trifluoromethoxy-benzyl)-3H-imidazo[4,5-b]pyridin-2-yl]-propionamide] | 81
4 | C[C@H](NC(=O)OCc1nc2cccnc2n1Cc1ccc(F)cc1)c1ccc(F)cc1 [Example 166, [(S)-1-(4-fluoro-phenyl)-ethyl]-carbamic acid 3-(4-fluoro-benzyl)-3H-imidazo[4,5-b]pyridin-2-ylmethyl Ester] | 336
5 | COc1cccc([C@H](C)NC(=O)NCc2nc3cccnc3n2Cc2ccc(F)cc2)c1 [Example 165, 1-[3-(4-Fluoro-benzyl)-3H-imidazo[4,5-b]pyridin-2-ylmethyl]-3-[(S)-1-(3-methoxy-phenyl)-ethyl]-urea] | 514
6 | C[C@H](NC(=O)CCc1nc2cccnc2n1Cc1cccs1)c1ccc(Cl)cc1 [Example 44, N-[(S)-1-(4-Chloro-phenyl)-ethyl]-3-(3-thiophen-2-ylmethyl-3H-imidazo[4,5-b]pyridin-2-yl)-propionamide] | 12
7 | COc1ccc(Cn2c(CCC(=O)N[C@H](C)c3ccccc3)nc3cccnc32)cc1 [Example 112, 3-[3-(4-Methoxy-benzyl)-3H-imidazo[4,5-b]pyridin-2-yl]-N-((R)-1-phenyl-ethyl)-propionamide] | 1060
8 | C[C@H](NC(=O)CCc1nc2cccnc2n1Cc1ccc(F)c(F)c1)c1ccc(N2CCCCC2)cc1 [Example 187, 3-[3-(3,4-Difluoro-benzyl)-3H-imidazo[4,5-b]pyridin-2-yl]-N-[(S)-1-(4-piperidin-1-yl-phenyl)-ethyl]-propionamide] | 15
9 | O=C(CCc1nc2cccnc2n1Cc1ccc(OC(F)(F)F)cc1)NCC1CCOCC1 [Example 62, N-(Tetrahydro-pyran-4-ylmethyl)-3-[3-(4-trifluoromethoxy-benzyl)-3H-imidazo[4,5-b]pyridin-2-yl]-propionamide] | 125
10 | O=C(CCc1nc2cccnc2n1Cc1ccc(F)c(F)c1)NC[C@@H](O)c1ccccc1 [Example 65, 3-[3-(3,4-Difluoro-benzyl)-3H-imidazo[4,5-b]pyridin-2-yl]-N-((S)-2-hydroxy-2-phenyl-ethyl)-propionamide] | 155
11 | COc1ccc(Cn2c(CCC(=O)N[C@@H](C)c3ccc(Cl)cc3)nc3cccnc32)cc1F [Example 24, N-[(S)-1-(4-Chloro-phenyl)-ethyl]-3-[3-(3-fluoro-4-methoxy-benzyl)-3H-imidazo[4,5-b]pyridin-2-yl]-propionamide] | 4
12 | O=C(CCc1nc2cccnc2n1Cc1ccc(OC(F)(F)F)cc1)N[C@@H](CO)c1ccccc1 [Example 7, N-((R)-2-Hydroxy-1-phenyl-ethyl)-3-[3-(4-trifluoromethoxy-benzyl)-3H-imidazo[4,5-b]pyridin-2-yl]-propionamide] | 1
13 | C[C@H](NC(=O)CCc1nc2cccnc2n1Cc1ccc(Br)cc1)c1ccc(Cl)cc1 [Example 21, 3-[3-(4-Bromo-benzyl)-3H-imidazo[4,5-b]pyridin-2-yl]-N-[(S)-1-(4-chloro-phenyl)-ethyl]-propionamide] | 5
14 | C[C@H](NC(=O)CCc1nc2cc(Br)cnc2n1Cc1ccc(OC(F)(F)F)cc1)c1ccc(Cl)cc1 [Example 61] | 100

Further lines, results first:

Row | IC50 [nM] | SMILES
15 | 800 | O=C(CCc1nc2cccnc2n1Cc1ccc(OC(F)(F)F)cc1)Nc1ncco1 [Example 78, N-Oxazol-2-yl-3-[3-(4-trifluoromethoxy-benzyl)-3H-imidazo[4,5-b]pyridin-2-yl]-propionamide]
16 | 726 | COc1ccc(CNC(=O)CCc2nc3cccnc3n2Cc2cccc(C)c2)cc1 [Example 118, N-(4-Methoxy-benzyl)-3-[3-(3-methyl-benzyl)-3H-imidazo[4,5-b]pyridin-2-yl]-propionamide]
17 | 80 | C[C@H](NC(=O)CCc1nc2cccnc2n1Cc1ccc(F)c(F)c1)c1ccc(CN(C)C)cc1 [Example 208, 3-[3-(3,4-Difluoro-benzyl)-3H-imidazo[4,5-b]pyridin-2-yl]-N-[(S)-1-(4-dimethylaminomethyl-phenyl)-ethyl]-propionamide]
18 | 42 | COc1ccc([C@H](C)NC(=O)NCc2nc3cccnc3n2Cc2ccc(F)cc2)cc1 [Example 159, 1-[3-(4-Fluoro-benzyl)-3H-imidazo[4,5-b]pyridin-2-ylmethyl]-3-[(S)-1-(4-methoxy-phenyl)-ethyl]-urea]
19 | 26 | C[C@H](NC(=O)CCc1nc2cccnc2n1Cc1ccc(F)c(F)c1)c1ccc(F)cc1 [Example 95, 3-[3-(3,4-Difluoro-benzyl)-3H-imidazo[4,5-b]pyridin-2-yl]-N-[(S)-1-(4-fluoro-phenyl)-ethyl]-propionamide]
20 | 20 | O=C(CCc1nc2ccncc2n1Cc1ccc(OC(F)(F)F)cc1)NCc1ccc(Cl)cc1 [Example 129, N-(4-Chloro-benzyl)-3-[3-(4-trifluoromethoxy-benzyl)-3H-imidazo[4,5-c]pyridin-2-yl]-propionamide]
21 | 14 | CC[C@H](NC(=O)CCc1nc2ccncc2n1Cc1ccc(F)cc1)c1ccccc1 [Example 127, 3-[3-(4-Fluoro-benzyl)-3H-imidazo[4,5-c]pyridin-2-yl]-N-((S)-1-phenyl-propyl)-propionamide]
22 | 10 | C[C@H](NC(=O)CCc1nc2cccnc2n1Cc1ccc(F)c(F)c1)c1ccc(N2CCCC2)cc1 [Example 183, 3-[3-(3,4-Difluoro-benzyl)-3H-imidazo[4,5-b]pyridin-2-yl]-N-[(S)-1-(4-pyrrolidin-1-yl-phenyl)-ethyl]-propionamide]
23 | 8 | CC[C@H](NC(=O)CCc1nc2cccnc2n1Cc1ccc(F)c(F)c1)c1ccccc1 [Example 89, 3-[3-(3,4-Difluoro-benzyl)-3H-imidazo[4,5-b]pyridin-2-yl]-N-((S)-1-phenyl-propyl)-propionamide]
24 | 7 | COc1ccc([C@H](C)NC(=O)CCc2nc3cc(C)cnc3n2Cc2ccc(OC(F)(F)F)cc2)cc1 [Example 212, N-[(S)-1-(4-Methoxy-phenyl)-ethyl]-3-[6-methyl-3-(4-trifluoromethoxy-benzyl)-3H-imidazo[4,5-b]pyridin-2-yl]-propionamide]
25 | 4 | Cc1ccc([C@H](C)NC(=O)CCc2nc3cccnc3n2Cc2ccc(F)c(F)c2)cc1 [Example 85, 3-[3-(3,4-Difluoro-benzyl)-3H-imidazo[4,5-b]pyridin-2-yl]-N-((S)-1-p-tolyl-ethyl)-propionamide]
26 | 1 | O=C(CCc1nc2cccnc2n1Cc1ccc(OC(F)(F)F)cc1)N[C@H](Cc1ccccc1)C(=O)O [Example 195, (R)-3-Phenyl-2-{3-[3-(4-trifluoromethoxy-benzyl)-3H-imidazo[4,5-b]pyridin-2-yl]-propionylamino}-propionic acid]

Source: patent US11453666B2, “Autotaxin inhibitory compounds” (Cancer Research Technology Limited, priority 2015, dated 2022)
